From patent US8691851B2, “Lanthanide metal complexes useful in treating cancer” (National University of Singapore, priority 2009, dated 2014) come the findings set out here.

Assay [1] relates to HCT-116 colorectal tumor cells. The protocol:
HCT-116 colorectal tumor cells were grafted subcutaneously onto nude mice. Tumor-bearing mice were then treated with solvent control (water) or different concentrations of (100 μg, 200 μg) C19H24N3O5S5Pr on day 1, day 5, day 9, day 12, and day 15. Tumor volumes (mm^3) were measured on day 1, day 5, day 8, day 9, day 12, day 14 and day 16. Tumor volumes in treated mice were compared with those of control mice.

Assay [2] concerns PTEN and MnSOD mRNA. As to conditions: SHEP-1 cells, 10 uM, 4 hr, 8 hr and 18 h. The method, then: This example illustrates the effect of C19H24N3O5S5Pr on the mRNA levels of PTEN and MnSOD in SHEP-1 cancer cells. mRNA levels of PTEN and MnSOD were assayed by real time PCR after treatment with 10 uM Pr-MPO for 4 hr, 8 hr and 18 h.
For assay [3], the system named is caspases. As to conditions: cancer cells.

Consider `CS(C)=O.CS(C)=O.[O-][n+]1ccccc1[S-].[O-][n+]1ccccc1[S-].[O-][n+]1ccccc1[S-].[Pr+3]` [C19H24N3O5S5Pr, praseodymium (2-mercaptopyridine N-oxide)(dimethylsulfoxide)], for which, in assay [1] (100 μg or 200 μg on day 1, 5, 9, 12 and 15, measured to day 16), the “tumor size compared to control mice” value is reported as “did not show a substantial increase in tumor size”. In addition, in assay [1] (200 μg), the “tumor growth suppression/inhibition versus control mice” value is on record as “at least 3 fold”. Besides, in assay [1] (dosage increased from 100 μg to 200 μg), the “tumor activity suppressed/inhibited, 200 μg versus 100 μg” value is listed as “at least 2 fold”. Also, the “mRNA levels of PTEN and MnSOD” value in assay [2] was “also found at the mRNA level”. Also, the caspase activation entry in assay [3] is reported as “does not activate caspases”.
